# From patent US12391919B2, “Culture medium, coating matrix and method for maturing midbrain dopaminergic progenitor cells” (NUWACELL BIOTECHNOLOGIES CO., LTD., priority 2022, dated 2025)
# Structures can show the parent of a compound that is named as a salt.
# How the values were obtained:
# Assay type in all cases: cell-based, human
# imDAPs [1] = assay: qRT-PCR analysis of imDAP-specific markers in expanded imDAPs; conditions: Example 3; 3 μM CHIR99021 (vs 0, 1.25 μM) during expansion; 5 days; FIG. 1C
# Method: • 1. Individualize and collect cells by either Accutase or TrypLE treatment. • 2. Wash cells with 1 ml PBS and pellet cells at 250×g for 15 sec. • 3. Remove supernatant, add ˜200 μl of 4% PFA, mix and fix for 10 min at RT. • 4. Pellet cells at 350×g for 5 min. • 5. Wash cells by 1 ml of FACS buffer and pellet cells at 350×g for 5 min. • 6. Remove supernatant, add 200 μl/tube of FACS buffer/0.1% TritonX, mix for 10 min at RT. • 7. Wash cells by 1 ml of FACS buffer and pellet cells at 350×g for 5 min. • 8. Remove supernatant, add 200 μl/tube of primary antibody diluted in FACS buffer, mix gently, and incubate for 30 min at RT. • 9. Wash cells by 1 ml of FACS buffer and pellet cells at 350×g for 5 min. • 10. Remove supernatant, and add 200 μl of secondary antibody diluted in FACS buffer, mix gently, and incubate for 30 min at RT. • 11. Wash cells by 1 ml of FACS buffer and pellet cells at 300×g for 5 min. • 12. Remove supernatant, add 200 μl of FACS buffer, and run samples on the flow cytometry. (2) qRT-PCR • 1. For qRT-PCR analysis of mRNA gene expression, RNA should be harvested from at least 2×10^6 cells. • 2. […] Analyze the samples by running a quantitative PCR on the LightCycler 480 instrument using a 40× cycle two-step protocol with a 60° C., 60 sec annealing/elongation step and a 95° C., 30 sec denaturation step. […]
# imDAPs [2] = assay: imDAP maturation: cell morphology, adhesion and cell yield; conditions: Example 13; maturation media supplemented with 10 μM Y27632; day 7; FIG. 8A
# Method: imDAPs were produced according to the method described in CN201910169525.0, and expanded as described in Example 10. […] MM-H used in Example 11 contained the following components: Neurobasal™ medium, 1% (v/v) Glutamax, 0.5 mM Db-cAMP sodium salt, 200 μM ascorbic acid, 20 ng/ml BDNF, 20 ng/ml GDNF, 1 ng/ml TGF-β3, 10 μM DAPT, HhPLT (0.5%, 1%, 2%). MM-B used in Example 11 contained the following components: Neurobasal, 1% (v/v) Glutamax, 0.5 mM Db-cAMP sodium salt, 200 μM ascorbic acid, 20 ng/ml BDNF, 20 ng/ml GDNF, 1 ng/ml TGF-β3, 10 μM DAPT, 2% (v/v) B27 (50×) (as control). The above HhPLT was produced from hPLT as follows. The hPLT was centrifuged at 3000 g for 30 min at 4° C. to obtain the supernatant, which was heated to 56° C. for 30 min. The suspension was finally cooled down to 4° C. at least 5 min, and spun at 3000 g for 30 min at 4° C. to obtain the HhPLT supernatant. Aliquots were prepared and stored at −80° C. until use. The above Medium was changed every 3rd day. On day 7, the imDAPs at early maturation stage were dissociated enzymatically with 1× TrypLE, centrifuged at 250 g for 5 minutes.
# imDAPs were produced according to the method described in CN201910169525.0, and expanded as described in Example 10. […] Medium was changed every 3rd day. On day 7, the imDAPs at early maturation stage were dissociated enzymatically with 1× TrypLE, centrifuged at 250 g for 5 minutes. Cells were collected for RT-qPCR analysis of EN1, LMX1A, FOXA2, NURR1, SOX6 and TH gene expression. The maturation medium used in Example 12 contained the following components: Neurobasal™ medium, 1% (v/v) Glutamax, 1% (v/v) HhPLT, 0.5 mM Db-cAMP sodium salt, 200 μM ascorbic acid, 20 ng/mL BDNF, 20 ng/mL GDNF, 1 ng/mL TGF-β3, 10 μM DAPT.
# imDAPs were produced according to the method described in CN201910169525.0, and expanded as described in Example 10. […] Cells were collected and counted by Vi-cell cytometer. The cells were analyzed by RT-qPCR for EN1, LMX1A, FOXA2, NURR1, SOX6 and TH gene expression. […]
# imDAPs [3] = assay: Flow cytometry (FACS) analysis of FOXA2 expression in expanded imDAPs; conditions: Example 6
# Method: • 1. Individualize and collect cells by either Accutase or TrypLE treatment. • 2. Wash cells with 1 ml PBS and pellet cells at 250×g for 15 sec. • 3. Remove supernatant, add ˜200 μl of 4% PFA, mix and fix for 10 min at RT. • 4. Pellet cells at 350×g for 5 min. • 5. Wash cells by 1 ml of FACS buffer and pellet cells at 350×g for 5 min. • 6. Remove supernatant, add 200 μl/tube of FACS buffer/0.1% TritonX, mix for 10 min at RT. • 7. Wash cells by 1 ml of FACS buffer and pellet cells at 350×g for 5 min. • 8. Remove supernatant, add 200 μl/tube of primary antibody diluted in FACS buffer, mix gently, and incubate for 30 min at RT. • 9. Wash cells by 1 ml of FACS buffer and pellet cells at 350×g for 5 min. • 10. Remove supernatant, and add 200 μl of secondary antibody diluted in FACS buffer, mix gently, and incubate for 30 min at RT. • 11. Wash cells by 1 ml of FACS buffer and pellet cells at 300×g for 5 min. • 12. Remove supernatant, add 200 μl of FACS buffer, and run samples on the flow cytometry. (2) qRT-PCR • 1. For qRT-PCR analysis of mRNA gene expression, RNA should be harvested from at least 2×10^6 cells. • 2. Harvest cells, add 350 μl of buffer RLT+1% (vol/vol) s-mercaptoethanol to the well, transfer the lysate to a 1.5 ml tube, and put it immediately on ice. • 3. Perform RNA extraction using the Tiangen Kit (DP430), and follow the manufacturer's protocol ‘Purification of total RNA from animal and human cells’. • 4. When the RNA extraction was completed, determine the RNA concentration using a Nanodrop instrument. • 5. Perform the first-strand cDNA synthesis reaction with 1 μg of RNA using the HiScript TM II Q RT SuperMIX for qPCR(+gDNA wiper) Kit (Vazyme, #R223-01) for RT-qPCR. Follow the manufacturer's ‘First-Strand cDNA Synthesis’ protocol. This reaction would yield a 20 μl product. • 6. Dilute the 10 μl cDNA product in 80 μl of nuclease-free water. • 7. Pipette the diluted cDNA product (1 μl), Sybr green master mix (5 μl, Transgen, #AQ131) and 0.95 μM reverse/forward primer mix (4 μl) into a 384-well PCR plate in triplicate, either manually or using an automated pipetting robot. The complete primer panel included the target genes and the housekeeping gene (RPL13A). In the analysis, also included a sample of undifferentiated hPSCs to determine the gene expression levels relative to the expression in hPSCs. • 8. Analyze the samples by running a quantitative PCR on the LightCycler 480 instrument using a 40× cycle two-step protocol with a 60° C., 60 sec annealing/elongation step and a 95° C., 30 sec denaturation step. The average CT values from the three technical replicates were used for calculations of relative gene expression using the ΔΔCT method. For each gene, calculate the FC of the differentiated samples relative to the undifferentiated control sample using the housekeeping gene for normalization. Next, calculate the average of the FC values on the basis of the housekeeping gene. (3) Immunocytochemical Analysis • 1. Cell fixation: Remove the medium from the cells and wash with PBS. Add 4% (wt/vol) PFA (e.g., 200 μl to a well in a 48-well plate) and incubate at room temperature (RT) for 15 min. after incubation, wash the cells three times in PBS. • 2. Blocking: Remove PBS from the wells and add blocking solution to the cells, add enough volume to cover the cells. Leave the cells in blocking solution for 1 h at RT. • 3. Primary antibodies incubation: Remove the blocking solution from the cells and add the primary antibody solutions (˜100 μl/cm^2). […]
SMILES,"mDAP marker expression (EN1, LMX1A, FOXA2) (imDAPs [1])",cell adhesion and growth (imDAPs [2]),"percentage of Foxa2-expressing cells (imDAPs [3]; 10 μM Y27632 vs 5 μM Blebbistatin, VTN-coated, Day 6, FIG. 2)",percentage of Foxa2-expressing cells during passages (imDAPs [3]; medium with Y27632)
Cc1cnc(-c2cnc(NCCNc3ccc(C#N)cn3)nc2-c2ccc(Cl)cc2Cl)[nH]1 [CHIR99021],allowed better maintenance of mDAP marker expression,–,–,–
"C[C@@H](N)[C@H]1CC[C@H](C(=O)Nc2ccncc2)CC1 [Y27632, (R)-(+)-trans-4-(1-aminoethyl)-N-(4-pyridyl) cyclohexanecarboxamide dihydrochloride]",–,could promote cell adhesion at a certain degree,capable of improving the percentage of Foxa2-expressing cells than Blebbistatin,still decreased during passages
